Test results from patent US20100099845A1, “PROTECTED ENANTIOPURE TRIFLUOROTHREONINES AND METHODS OF MAKING AND USING SAME” (University of Utah Research Foundation, priority 2006, published 2010).

Columns and labels:
[1] = literature values of Kovacs, Mant, Hodges 2006; cited from earlier work
[2] = Relative hydrophobicity by reversed-phase HPLC retention time (method of Hodges and coworkers); format: physicochemical; settings: for retention time, tR (measure of hydrophobicity): Kromasil C18, 0.2% TFA water/ACN linear gradient 0.25% ACN/min from 55% B, 0.3 mL/min, 25° C., co-injection, FIG. 4; for retention time difference ΔtR relative to allo-D-Thr/allo-L-Thr pair: same reversed-phase HPLC conditions, CF3 vs CH3
Procedure: As fluorination can decrease the hydrophilicity of a molecule [(a) Böhm, H-J.; Banner, D.; Bendels, S.; Kansy, M.; Kuhn, B.; Müller, K.; Obst-Sander, U.; Stahl, M. Chem BioChem. 2004, 5, 637-643. […] 1996, 276, 1049-1057.], the hydrophobicity of Fmoc-tfT (1a and 1b) relative to their non-fluorinated counterparts was determined. The chromatography method developed by Hodges and coworkers [Kovacs, J. M.; Mant, C. T.; Hodges, R. S. Biopolymers (Peptide Science) 2006, 84, 283-297.], who determined the relative hydrophobicity of 23 L-amino acids and their D-enantiomers, was used. As pointed out by Hodges and coworkers [Kovacs, J. M.; Mant, C. T.; Hodges, R. S. Biopolymers (Peptide Science) 2006, 84, 283-297.], a criterion for measuring true hydrophobicity of an amino acid is that the D/L enantiomers should give the same retention time, tR. […] All of the enantiomeric pairs, allo-D-Thr/allo-L-Thr (tR=7.2 min), D-Thr/L-Thr (tR=9.2 min) and allo-D-tfT/allo-L-tfT (tR=11.6 min), co-elute, satisfying the criterion established by Hodges and coworkers. [Kovacs, J. M.; Mant, C. T.; Hodges, R. S. Biopolymers (Peptide Science) 2006, 84, 283-297.] In reversed-phase chromatography, a larger retention time typically indicates a more hydrophobic molecule. The allo-D-tfT/allo-L-tfT pair is more retentive than the allo-D-Thr/allo-L-Thr pair (ΔtR=11.6−7.2=4.2 min). […] [Kovacs, J. M.; Mant, C. T.; Hodges, R. S. Biopolymers (Peptide Science) 2006, 84, 283-297.]
In FIG. 4, all chromatography runs followed exactly the same conditions used by Hodges and coworkers [Zhang, X. G.; Ni, W. J.; van der Donk, W. A. J. Org. Chem. 2005, 70, 6685-6692.]. The HPLC conditions are as follows: column, Kromasil C18 (150 mm×2.1 mm I.D., 5 μm, 100 Å pore size, Higgins Analytical, Inc., CA); mobile phase, A: 0.2% TFA (trifluoroacetic acid) in water, B: 0.2% TFA in ACN (acetonitrile); condition, linear AB gradient (0.25% ACN/min, starting from 55% B); flow rate, 0.3 mL/min; temperature, 25° C. 1a and 1b were purified by silica-gel column chromatography and dissolved in mobile phase B before injection. allo-D-N-Fmoc-O-tert-butyl-Thr and allo-L-N-Fmoc-O-tert-butyl-Thr were from BACHEM California Inc. D-N-Fmoc-O-tert-butyl-Thr and L-N-Fmoc-O-tert-butyl-Thr were from Novabiochem.

Row | retention time, tR (measure of hydrophobicity) [2] | SMILES | further results
1 | – | C[C@H](N)C(=O)O [Ala] | retention time difference ΔtR relative to Gly [1]: 2.8 min
2 | – | N[C@@H](CS)C(=O)O [Cys, cysteine] | retention time difference ΔtR relative to Ala [1]: 4.8 min
3 | 9.2 min | C[C@H](OC(C)(C)C)[C@@H](NC(=O)OCC1c2ccccc2-c2ccccc21)C(=O)O [D-Thr, (2R,3S)-N-Fmoc-O-tert-butyl-threonine] | –
4 | 9.2 min | C[C@@H](OC(C)(C)C)[C@H](NC(=O)OCC1c2ccccc2-c2ccccc21)C(=O)O [L-Thr, (2S,3R)-N-Fmoc-O-tent-butyl-threonine] | –
5 | – | CC(C)[C@H](N)C(=O)O [Val] | retention time difference ΔtR relative to Ala [1]: 10.6 min
6 | 7.2 min | C[C@@H](OC(C)(C)C)[C@@H](NC(=O)OCC1c2ccccc2-c2ccccc21)C(=O)O [allo-D-Thr, (2R,3R)-N-Fmoc-O-tert-butyl-threonine] | –
7 | 7.2 min | C[C@H](OC(C)(C)C)[C@H](NC(=O)OCC1c2ccccc2-c2ccccc21)C(=O)O [allo-L-Thr, (2S,3S)-N-Fmoc-O-tent-butyl-threonine] | –
8 | 11.6 min | CC(C)(C)O[C@H]([C@H](NC(=O)OCC1c2ccccc2-c2ccccc21)C(=O)O)C(F)(F)F [allo-L-tfT, (2S,3R)-4,4,4-trifluoro-N-Fmoc-O-tert-butyl-threonine] | retention time difference ΔtR relative to allo-D-Thr/allo-L-Thr pair [2]: 4.2 min

Row | SMILES | retention time, tR (measure of hydrophobicity) [2] | further results
9 | CC(C)(C)O[C@@H]([C@@H](NC(=O)OCC1c2ccccc2-c2ccccc21)C(=O)O)C(F)(F)F [allo-D-tfT, (2R,3S)-2-(((9H-fluoren-9-yl)methoxy)carbonylamino)-3-tert-butoxy-4,4,4-trifluorobutanoic acid] | 11.6 min | retention time difference ΔtR relative to allo-D-Thr/allo-L-Thr pair [2]: 4.2 min
